{"source": "patent US20080147019A1", "about": "“Antimicrobial component system containing metallic nanoparticles and chitosan and/or its derivatives” (Kimberly-Clark Worldwide, Inc., priority 2006, published 2008)", "origin": "cited, not measured here", "system": "bacteria (gram+ and gram−), as well as fungi (molds and yeasts)", "settings": "very low doses, as low as about", "data": [{"smiles": "[Ag+]", "note": "[Ionic silver, Ionic silver (Ag+)]", "values": [{"measurement": "dose at which antimicrobial (oligodynamic)", "value": "0.001-0.05 ppm"}]}]}
